Legend:
[1] = system: herpes labialis outbreaks; experiment: Phase 2 multi-center placebo-controlled study of single dose SADBE in recurrent herpes labialis; assay type: in vivo, human
Description: After institutional review board approval and written informed consent, this study was conducted at five centers in subjects with four or more herpes labialis episodes in the previous 12 months. Subjects were randomized to receive either (1) one dose of 2% SADBE in DMSO on day 1, (2) 2% SADBE on day 1 and a second lower dose (0.5%) “booster” on day 22, or (3) dimethylsulfoxide (DMSO) vehicle only on days 1 and 22. All subjects were followed for 1 year.
(§1) Doses were applied by dipping a cotton swab in a blindly labeled 1 ml vial of liquid study medication, then swabbing a spot on the inner aspect of the upper arm over an area of about 10 to 15 mm diameter encircled by petroleum jelly. After application, the spot was covered by TEGADERM™ dressing, and subjects were advised to remove the dressing and wipe the spot with a wet cloth 3 hours later. The weight of the vial of study medication with the vial standing in it was measured immediately before and immediately after dosing each subject. The difference was the net mass of drug applied. In most cases, 10 mg to 20 mg of drug solution was applied to the arm.

[2] = system: common warts and alopecia areata; details: solutions of 0.05% to 2.0% weight/volume, vehicle almost always acetone, applied repeatedly (Buckley et al., Lee et al.); cited from earlier work
[3] = system: PBMCs in the presence of HSV-1; experiment: Immune gene expression and proliferation of PBMCs from subjects dosed once with SADBE; assay type: cell-based, human
Excerpt: Introduction: Differences in immune characteristics, including immune gene expression by peripheral blood mononuclear cells (PBMCs), correlating with herpes labialis and good or poor immune control of herpes simplex virus type 1 (HSV-1) (i.e., frequency of herpes labialis episodes), and how these characteristics change after dosing with squaric acid dibutyl ester (SADBE), were investigated. Methods: PBMCs were collected from persons positive for IgG against HSV-1 and having frequent (self-reported 6 or more episodes in the prior 12 months), infrequent (1 or 2 episodes in the prior 12 months), or no herpes labialis outbreaks in the prior 12 months. The PBMCs were tested for proliferation against HSV-1 and a fungal antigen (Candida) and immune gene expression in the presence of HSV-1 and Candida. On day 1 after blood collection the subjects with frequent outbreaks were dosed topically on the arm once with 2% SADBE in DMSO, and their PBMCs were collected and tested 2 weeks later and 8 weeks later.
as §1, with “1-ml” for “blindly labeled 1 ml”

guinea pig skin = experiment: Cutaneous irritation (Draize, Primary Irritation Index) after SADBE dermal patch in guinea pig; assay type: in vivo; details: for time to return to non-irritating levels post-dermal-application / time of peak cutaneous irritation: re-challenge
Description: Thirty (30) guinea pigs (15 female and 15 male) were utilized for this nonGLP study. Prior to and post dosing (dermal patches loaded with 20 microliters of 2, 6, or 18% SADBE drug solution) body weights, group food consumption, and Draize scoring for erythema, eschar formation, and edema at the dose site were be recorded. The dermal patch loaded with SADBE was applied to animals, and left in place for ˜12 hours plus/minus 1 hour. Following the ˜12 hour dosing period, patch sites was assessed by Draize scoring. […] After the 28 days assessment period, re challenge was performed, a second patch (not treated during the induction phase) was applied and assessed by Draize scoring.
Cutaneous irritation at the test site was observed and scored each day of the study by the Draize Scale for both Erythema & Eschar and Edema. The scale for each is in Tables 9 and 10, each on a 0-4 scale. The cumulative Erythema & Eschar and Edema score was the Primary Irritation Index score, which would therefore be on a 0-8 scale.
To assess the effect of the test article, SADBE (2%, 6%, and 18% in DMSO), on cutaneous skin irritation potential and sensitivity in guinea pig, Draize scoring system was used for dose site evaluation for erythema and eschar responses and for Edema. The test article (20 ul) was loaded on a dermal patch and applied to shaved guinea pig skin for 12 hrs (induction phase). The first dose site evaluation was performed for 30 days post application. A second dose was applied and dose site evaluation was also performed for approximately 5 weeks (challenge phase).
The Primary Irritation Index (pII) for each test article dose was calculated to assess the irritation potential. The Primary Irritation Index (pII) is the mean of the primary irritation score. The primary irritation score is the sum of the erythema/eschar score and the edema score, resulting in a maximal irritation potential of 8. The daily primary irritation index (pII) for each test article dose over the course of the study was calculated (FIG. 4). The pII is used to categorize the test article treatments as negligible to not irritating (0-0.9), slight (0.9-1.9), moderate (2-4.9) or severe (5-8) irritation potential. […] (FIG. 4.)

[4] = system: herpes labialis (cold sores or oral herpes); details: cited from earlier work
[5] = single topical dose of 2% SADBE in DMSO to the arm, 56 days after dose vs day 1

CCCCOc1c(OCCCC)c(=O)c1=O [SADBE, squaric acid dibutyl ester]
time to next outbreak from day 43 to 121 ([1]; 1-dose group (2% SADBE in DMSO day 1) vs placebo, p=0.024): superior to the placebo group | proportion of subjects with an outbreak in days 43-121 ([1]; 1-dose group (9/39), placebo 46%, p=0.036): 23% | mean number of outbreaks in days 43-121 ([1]; 1-dose group, ± standard error, placebo 0.610±0.068, p=0.011): 0.231±0.125 | average number of moderate or severe outbreaks over days 1-365 ([1]; 1-dose, placebo 1.341±1.76, p=0.04): 0.641±0.931 | average number of moderate or severe outbreaks over days 43-121 ([1]; 1 dose of SADBE, placebo 0.390±0.703, p=0.04): 0.128±0.339 | outbreak measures vs placebo, 2-dose group ([1]; 2% SADBE day 1 and 0.5% booster day 22): superior to placebo these same measures, but not significantly so | severity of administration site reactions (most common adverse event) ([1]; topical 2% SADBE): all mild or moderate | time to resolution of administration site reactions ([1]; topical 2% SADBE): ≤ 3 months | treatment of common warts and alopecia areata [2]: used successfully | PBMC gene expression or proliferation measures vs day 1 ([3]; 2 weeks after the one dose of 2% SADBE): did not differ | IFNG expression in PBMCs in the presence of HSV-1 virus [3, 5]: increasing | IL5 expression in PBMCs in the presence of HSV-1 virus [3, 5]: decreasing | irritation category by Primary Irritation Index (pII) (guinea pig skin; 2% SADBE, 20 ul patch, 12 h, first dose): slightly irritating | duration of slight cutaneous irritation (guinea pig skin; 2% SADBE, induction): > 17 days | time to return to non-irritating levels post-dermal-application (guinea pig skin; 2% SADBE): ~9 days | irritation category by Primary Irritation Index (pII) (guinea pig skin; 2% SADBE, re-challenge (second dose)): moderately irritating | duration of slight to moderate cutaneous irritation (guinea pig skin; 2% SADBE, re-challenge at naive site): ~5 days | irritation category by Primary Irritation Index (pII) (guinea pig skin; 6% SADBE, 20 ul patch, 12 h, first dose): moderately irritating | duration of moderate cutaneous irritation (guinea pig skin; 6% SADBE, induction): ~18 days | time to return to slight irritation and not irritating levels (guinea pig skin; 6% SADBE, induction): ~23 days | time of peak cutaneous irritation (guinea pig skin; 6% SADBE): ~5 days | time to return to non-irritating levels post-dermal-application (guinea pig skin; 6% SADBE): ~14 days | irritation category by Primary Irritation Index (pII) (guinea pig skin; 6% SADBE, re-challenge (second dose)): moderately irritating | irritation category by Primary Irritation Index (pII) (guinea pig skin; 18% SADBE, 20 ul patch, 12 h, first dose): severely irritating | duration of moderate to severe cutaneous irritation (guinea pig skin; 18% SADBE, induction): ~21 days | time to return to slight irritation and not irritating levels post-dosing (guinea pig skin; 18% SADBE, induction): ~27 days | time of peak cutaneous irritation (guinea pig skin; 18% SADBE): ~8 days | time to return to non-irritating levels post-dermal-application (guinea pig skin; 18% SADBE): ~19 days | irritation category by Primary Irritation Index (pII) (guinea pig skin; 18% SADBE, re-challenge (second dose)): moderately irritating | time for which a single dose to the arm prevents outbreaks ([4]; SADBE-DMSO solution (Palli et al., Chang et al.)): ≥ 3 months | number of cold sore outbreaks ([4]; single dose applied to the arm, for about four months (Palli et al., Chang et al.)): significantly decrease number of cold sore outbreaks

— patent publication US20210393932A1, “DERMAL PATCHES AND GLASS SWABS FOR APPLICATION OF TOPICAL IMMUNOSENSITIZERS” (Squarex, LLC, priority 2020, published 2021)
